Ten molecules from ChEMBL document CHEMBL4699524 (Bioorg Med Chem Lett, 2020) can be followed below.

Data set [1] has as its system Leishmania donovani. As to the kind of experiment: Potency index, ratio of artesunate IC50 to test compound IC50 for antileishmanial activity against Leishmania donovani 9515 promastigotes incubated for 72 hrs by resazurin dye based assay. Format: functional.
For data set [2], the system named is Leishmania donovani. Put plainly: Potency index, ratio of artesunate IC50 to test compound IC50 for antileishmanial activity against Leishmania donovani 1S promastigotes incubated for 72 hrs by resazurin dye based assay. Format: functional. (Resazurin is reduced to fluorescent resorufin, in cell work by metabolically active cells.)
Data set [3] in a line: Selectivity index, ratio of IC50 for CHO cells to IC50 for antileishmanial activity against Leishmania donovani 9515 by resazurin dye based assay. The conditions noted are these: hamster, read-out: Ratio IC50. Format: toxicity.
Data set [4] relates to Leishmania donovani. Put plainly: Potency index, ratio of dihydroartemisinin IC50 to test compound IC50 for antileishmanial activity against Leishmania donovani 9515 promastigotes incubated for 72 hrs by resazurin dye based assay. The class given is functional.
Data set [5] can be described thus: Selectivity index, ratio of IC50 for CHO cells to IC50 for antileishmanial activity against Leishmania donovani 1S by resazurin dye based assay. The conditions noted are these: hamster, read-out: Ratio IC50. The class given is toxicity.
Data set [6] has as its system Leishmania donovani. As to the kind of experiment: Antileishmanial activity against Leishmania donovani 1S promastigotes assessed as inhibition of parasite growth incubated for 72 hrs by resazurin dye based assay. The class given is functional, organism-based.
The test system of data set [7] is Plasmodium falciparum. As to the kind of experiment: Antiplasmodial activity against chloroquine-resistant Plasmodium falciparum Dd2 by LDH assay. The class given is functional, organism-based.
For a further data set, the system named is Leishmania major. Put plainly: Antileishmanial activity against Leishmania major IR-173 promastigotes assessed as inhibition of parasite growth incubated for 72 hrs by resazurin dye based assay. The class given is functional, organism-based. The following applies: IR-173, 72 h.
The subject of data set [8] is Plasmodium falciparum. Put plainly: Antiplasmodial activity against chloroquine-sensitive Plasmodium falciparum NF54 by LDH assay. The class given is functional, organism-based.
A short description of the next data set: in vitro. The conditions noted are these: hamster, CHO cells.
Data set [9] has as its system Leishmania donovani. Put plainly: Potency index, ratio of dihydroartemisinin IC50 to test compound IC50 for antileishmanial activity against Leishmania donovani 1S promastigotes incubated for 72 hrs by resazurin dye based assay. The class given is functional.
A further data set concerns CHO. Put plainly: Cytotoxicity against CHO cells assessed as reduction in cell viability by MTT assay. Format: cell-based. The conditions noted are these: Cricetulus griseus. (Tetrazolium dyes change colour on reduction, which living cells bring about.)
The subject of data set [10] is Leishmania donovani. As to the kind of experiment: Potency index, ratio of artemether IC50 to test compound IC50 for antileishmanial activity against Leishmania donovani 1S promastigotes incubated for 72 hrs by resazurin dye based assay. The class given is functional.
The subject of data set [11] is Leishmania donovani. Put plainly: Potency index, ratio of artemether IC50 to test compound IC50 for antileishmanial activity against Leishmania donovani 9515 promastigotes incubated for 72 hrs by resazurin dye based assay. The class given is functional.
The test system of data set [12] is Leishmania donovani. Put plainly: Antileishmanial activity against Leishmania donovani 9515 promastigotes assessed as inhibition of parasite growth incubated for 72 hrs by resazurin dye based assay. Format: functional, organism-based. The following applies: Leishmania donovani, 9515, 72 h.
Data set [13] in a line: Selectivity index, ratio of IC50 for antileishmanial activity against Leishmania major IR-173 promastigotes to IC50 for antileishmanial activity against Leishmania donovani 1S promastigotes incubated for 72 hrs by resazurin dye based assay. The class given is functional.
A short description of data set [14]: Selectivity index, ratio of IC50 for antileishmanial activity against Leishmania major IR-173 promastigotes to IC50 for antileishmanial activity against Leishmania donovani 9515 promastigotes incubated for 72 hrs by resazurin dye based assay. The class given is functional.

As for `C[C@@H]1CC[C@H]2C(C)(COC(=O)c3ccc(-c4ccccc4)cc3)O[C@@H]3O[C@@]4(C)CC[C@@H]1[C@]32OO4` (some centres undefined), the “Ratio IC50” value in the data set with Leishmania donovani [1], with Leishmania donovani [2], in the data set on Leishmania donovani [4], in the data set with Leishmania donovani [9], in the data set with Leishmania donovani [10] and with Leishmania donovani [11] was 30 each time. Further, the selectivity ratio in [3] was 23; in [5], > 36; in “in vitro” it was 10. Moreover, the IC50 was 4.42 µM in the data set with Leishmania donovani [6]; 6.9 nM in the data set with Plasmodium falciparum [7]; 9.87 µM with Leishmania major; 7.3 nM with Plasmodium falciparum [8]; > 100 µM in the data set with CHO; 2.8 µM in the data set with Leishmania donovani [12].

On to `Cc1csc(C(=O)OCC2(C)O[C@@H]3O[C@@]4(C)CC[C@H]5[C@H](C)CC[C@@H]2[C@@]35OO4)c1` (some centres undefined), for which the “Ratio IC50” value with Leishmania donovani [1], in the data set with Leishmania donovani [2], in the data set on Leishmania donovani [4], in the data set with Leishmania donovani [9], in the data set with Leishmania donovani [10] and in the data set on Leishmania donovani [11] was 30 in each case. Besides, the selectivity ratio in data set [3] was 18; in data set [5], > 15; in the data set “in vitro”, 24. The IC50 is 5.61 µM in the data set with Leishmania donovani [6]; 7.1 nM in the data set on Plasmodium falciparum [7]; 4.26 µM with Leishmania major; 7.2 nM in the data set with Plasmodium falciparum [8]; > 100 µM with CHO; 6.48 µM in the data set on Leishmania donovani [12].

`C[C@@H]1CC[C@H]2C(C)(C=O)O[C@@H]3O[C@@]4(C)CC[C@@H]1[C@]32OO4` (some centres undefined): the Ratio IC50 in data set [13] and in data set [14] was 3 in each case. The values for the selectivity ratio (in data set [3]; in data set [5]; in the data set “in vitro”) were 13, > 39 and 4, respectively. Further, the IC50 with Leishmania donovani [6] is 8.07 µM; in the data set with Plasmodium falciparum [7] it was 4.1 nM; in the data set on Leishmania major, 26.6 µM; with Plasmodium falciparum [8], 6.9 nM; with CHO, > 100 µM; with Leishmania donovani [12] it was 2.55 µM.

With `C[C@@H]1CC[C@H]2C(C)(COC(=O)c3ccc(F)cc3)O[C@@H]3O[C@@]4(C)CC[C@@H]1[C@]32OO4` (some centres undefined), the selectivity ratio in [3] is 10; in data set [5], > 12; in “in vitro”, 13. Further, the IC50 was 10.1 µM in the data set with Leishmania donovani [6]; 4.4 nM with Plasmodium falciparum [7]; 7.57 µM in the data set with Leishmania major; 3.7 nM in the data set on Plasmodium falciparum [8]; > 100 µM in the data set with CHO; 8.11 µM in the data set on Leishmania donovani [12].

As for `C[C@@H]1CC[C@H]2C(C)(COC(=O)CCc3ccccc3)O[C@@H]3O[C@@]4(C)CC[C@@H]1[C@]32OO4` (some centres undefined), the selectivity ratio in [3] is 4; in [5], > 4; in the data set “in vitro”, 16. For the same molecule, the IC50 was 24.4 µM in the data set on Leishmania donovani [6]; 11.5 nM with Plasmodium falciparum [7]; 6.36 µM in the data set with Leishmania major; 7.4 nM in the data set on Plasmodium falciparum [8]; > 100 µM with CHO; 24.6 µM in the data set on Leishmania donovani [12].

Take `C[C@H]1[C@@H](O)O[C@@H]2O[C@@]3(C)CC[C@H]4[C@H](C)CC[C@@H]1[C@@]24OO3` [ARTENIMOL]: the selectivity ratio in [3] is 4; in [5], 3; in “in vitro”, 2. The IC50 with Leishmania donovani [6] was 27 µM; in the data set with Plasmodium falciparum [7], 1.2 nM; in the data set with Leishmania major it was 42.6 µM; in the data set with Plasmodium falciparum [8], 2.2 nM; in the data set with CHO, > 100 µM; in the data set with Leishmania donovani [12] it was 31.2 µM.

Regarding `CCCC(=O)OCC1(C)O[C@@H]2O[C@@]3(C)CC[C@H]4[C@H](C)CC[C@@H]1[C@@]24OO3` (some centres undefined), the selectivity ratio in data set [3] was 8; in data set [5] it was > 2; in the data set “in vitro”, 8. Further, the IC50 was 12.4 µM in the data set on Leishmania donovani [6]; 6.9 nM in the data set on Plasmodium falciparum [7]; 11.9 µM with Leishmania major; 16.9 nM with Plasmodium falciparum [8]; > 100 µM in the data set on CHO; 45 µM in the data set on Leishmania donovani [12].

On to `C[C@@H]1CC[C@H]2C(C)(COC(=O)c3cccs3)O[C@@H]3O[C@@]4(C)CC[C@@H]1[C@]32OO4` (some centres undefined), for which the “Ratio IC50” value with Leishmania donovani [1], in the data set with Leishmania donovani [2], in the data set with Leishmania donovani [4], in the data set on Leishmania donovani [9], with Leishmania donovani [10] and in the data set with Leishmania donovani [11] was 30 each time. The selectivity ratio in data set [3] came out at 9; in the data set “in vitro”, 10. In addition, the IC50 in the data set on Leishmania donovani [6] is 11.5 µM; in the data set with Plasmodium falciparum [7], 5.9 nM; with Leishmania major, 9.93 µM; in the data set with Plasmodium falciparum [8] it was 4.8 nM; in the data set with CHO, > 100 µM; in the data set on Leishmania donovani [12] it was > 100 µM.

As to `CCCCCC(=O)OCC1(C)O[C@@H]2O[C@@]3(C)CC[C@H]4[C@H](C)CC[C@@H]1[C@@]24OO3` (some centres undefined), the results for the selectivity ratio (in data set [3]; in data set [5]; in the data set “in vitro”) were 4, > 4 and 7, respectively. The IC50 in the data set on Leishmania donovani [6] is 25.5 µM; in the data set on Plasmodium falciparum [7], 43.2 nM; in the data set with Leishmania major, 13.9 µM; in the data set with Plasmodium falciparum [8] it was 60.1 nM; in the data set with CHO it was > 100 µM; in the data set with Leishmania donovani [12], 23 µM.

On to `COc1ccc2nc3cc(Cl)ccc3c(N3CCN(CCO[C@H]4O[C@@H]5O[C@@]6(C)CC[C@H]7[C@H](C)CC[C@@H]([C@H]4C)[C@@]57OO6)C(C)C3)c2c1` (some centres undefined), for which the selectivity ratio in [3] was found to be 5; in data set [5] it was 4; in the data set “in vitro” it was 9. The IC50 in the data set on Leishmania donovani [6] was 2.38 µM; with Plasmodium falciparum [7], 41.3 nM; with Leishmania major, 0.69 µM; with Plasmodium falciparum [8], 17 nM; with CHO it was 6 µM; with Leishmania donovani [12], 1.59 µM.

In general, IC50 refers to the concentration that gives 50% inhibition.
